Measured values published in ChEMBL document CHEMBL3885861, “Open TG-GATES”.

Species on record: Rattus norvegicus
Test: Open TG-GATES - Regimen: Single
Format: toxicity, organism-based, Sprague-Dawley
Set-up: regimen Single, gender Male, age 6 weeks
Conditions: in vivo, po, 40 mg/kg, route gavage, dose level Low; for APTT / Bas / Eos / Fbg / Hb / Ht / Lym / MCH / MCHC / MCV / Mono / Neu / PT / Plat / RBC / Ret / WBC: tissue Blood; for KIDNEY_L / KIDNEY_R / KIDNEY_TOTAL: tissue Kidney; for LIVER: tissue Liver; for A/G / ALP / ALT / AST / BUN / CRE / Ca / Cl / DBIL / GLC / IP / K / LDH / Na / PL / RALB / TBIL / TC / TG / TP / gamma-GTP: tissue Plasma

In the case of `COc1ccc(Cc2nccc3cc(OC)c(OC)cc23)cc1OC` [PAPAVERINE], the TERMINAL_BW (3 h) is reported as 231 g, the APTT (3 h) is reported as 22.7 s and the Bas (3 h) is reported as 0%. For the same compound, the Eos (3 h) was 0.8%, the Fbg (3 h) was 308.6 mg/dL and the Hb (3 h) was 13.3 g/dL. The Ht (3 h) was 39.9%, the Lym (3 h) was 77% and the MCH (3 h) was 20.8 pg. The MCHC (3 h) was 33.4%, the MCV (3 h) was 62.1 fL and the Mono (3 h) was 2.2%. The Neu (3 h) was 19%, the PT (3 h) was 15.5 s and the Plat (3 h) was 111.6 x10_4/uL. The RBC (3 h) was 643.2 x10_4/ul, the Ret (3 h) was 8.1% and the WBC (3 h) was 104.1 x10_2/uL. The KIDNEY_L (3 h) was 0.9 g, the KIDNEY_R (3 h) was 0.9 g and the KIDNEY_TOTAL (3 h) was 1.9 g. For the same compound, the LIVER (3 h) was 10.4 g, the A/G (3 h) was 1.2 and the ALP (3 h) was 1691.2 IU/L. It also gave an ALT (3 h) of 41.2 IU/L, an AST (3 h) of 79 IU/L and a BUN (3 h) of 13.4 mg/dL. The CRE (3 h) was 0.1 mg/dL, the Ca (3 h) was 11.1 mg/dL and the Cl (3 h) was 107.2 meq/L. For the same compound, the DBIL (3 h) was 0 mg/dL, the GLC (3 h) was 179 mg/dL and the IP (3 h) was 7.7 mg/dL. The K (3 h) was 4 meq/L, the LDH (3 h) was 190.4 IU/L and the Na (3 h) was 141.6 meq/L. For the same compound, the PL (3 h) was 135 mg/dL, the RALB (3 h) was 3 g/dL and the TBIL (3 h) was 0.006 mg/dL. It also gave a TC (3 h) of 75.2 mg/dL, a TG (3 h) of 65.6 mg/dL and a TP (3 h) of 5.4 g/dL. The gamma-GTP (3 h) was 1.6 IU/L, the TERMINAL_BW (6 h) was 221.8 g and the APTT (6 h) was 21.2 s. It also gave a Bas (6 h) of 0%, an Eos (6 h) of 0.8% and a Fbg (6 h) of 322.4 mg/dL. For the same compound, the Hb (6 h) was 13.4 g/dL, the Ht (6 h) was 39.9% and the Lym (6 h) was 78.2%. It also gave an MCH (6 h) of 20.7 pg, an MCHC (6 h) of 33.7% and an MCV (6 h) of 61.5 fL. For the same compound, the Mono (6 h) was 2.8%, the Neu (6 h) was 16.8% and the PT (6 h) was 15.8 s. The Plat (6 h) was 129.6 x10_4/uL, the RBC (6 h) was 647.8 x10_4/ul and the Ret (6 h) was 7.6%. The WBC (6 h) was 105.5 x10_2/uL, the KIDNEY_L (6 h) was 1 g and the KIDNEY_R (6 h) was 1 g. It also gave a KIDNEY_TOTAL (6 h) of 1.9 g, an LIVER (6 h) of 9.4 g and an A/G (6 h) of 1.2. For the same compound, the ALP (6 h) was 1422 IU/L, the ALT (6 h) was 36.2 IU/L and the AST (6 h) was 72.4 IU/L. For the same compound, the BUN (6 h) was 10.6 mg/dL, the CRE (6 h) was 0.1 mg/dL and the Ca (6 h) was 11.1 mg/dL. The Cl (6 h) was 106.8 meq/L, the DBIL (6 h) was 0.002 mg/dL and the GLC (6 h) was 179.8 mg/dL. It also gave an IP (6 h) of 8.9 mg/dL, a K (6 h) of 4.3 meq/L and an LDH (6 h) of 161.2 IU/L. It also gave a Na (6 h) of 140.6 meq/L, a PL (6 h) of 124.6 mg/dL and an RALB (6 h) of 3 g/dL. It also gave a TBIL (6 h) of 0.012 mg/dL, a TC (6 h) of 71.4 mg/dL and a TG (6 h) of 64 mg/dL. The TP (6 h) was 5.4 g/dL, the gamma-GTP (6 h) was 2.2 IU/L and the TERMINAL_BW (9 h) was 221.9 g. For the same compound, the APTT (9 h) was 21 s, the Bas (9 h) was 0% and the Eos (9 h) was 1%. It also gave a Fbg (9 h) of 325 mg/dL, a Hb (9 h) of 13.5 g/dL and a Ht (9 h) of 40.5%. For the same compound, the Lym (9 h) was 78.6%, the MCH (9 h) was 20.4 pg and the MCHC (9 h) was 33.4%. For the same compound, the MCV (9 h) was 61.2 fL, the Mono (9 h) was 3% and the Neu (9 h) was 16.6%. For the same compound, the PT (9 h) was 15.4 s, the Plat (9 h) was 114.2 x10_4/uL and the RBC (9 h) was 661.8 x10_4/ul. For the same compound, the Ret (9 h) was 7.6%, the WBC (9 h) was 78.8 x10_2/uL and the KIDNEY_L (9 h) was 1 g. The KIDNEY_R (9 h) was 1 g, the KIDNEY_TOTAL (9 h) was 1.9 g and the LIVER (9 h) was 9.4 g. For the same compound, the A/G (9 h) was 1.3, the ALP (9 h) was 1463.2 IU/L and the ALT (9 h) was 37 IU/L. For the same compound, the AST (9 h) was 70.2 IU/L, the BUN (9 h) was 11 mg/dL and the CRE (9 h) was 0.1 mg/dL. For the same compound, the Ca (9 h) was 11.1 mg/dL, the Cl (9 h) was 107.4 meq/L and the DBIL (9 h) was 0 mg/dL. For the same compound, the GLC (9 h) was 183.6 mg/dL, the IP (9 h) was 9.2 mg/dL and the K (9 h) was 4 meq/L. For the same compound, the LDH (9 h) was 150.2 IU/L, the Na (9 h) was 140.6 meq/L and the PL (9 h) was 133.6 mg/dL. For the same compound, the RALB (9 h) was 3 g/dL, the TBIL (9 h) was 0.02 mg/dL and the TC (9 h) was 73.2 mg/dL. For the same compound, the TG (9 h) was 69.8 mg/dL, the TP (9 h) was 5.4 g/dL and the gamma-GTP (9 h) was 1.6 IU/L. The TERMINAL_BW (24 h) was 234.3 g, the APTT (24 h) was 21.8 s and the Bas (24 h) was 0%. For the same compound, the Eos (24 h) was 0.8%, the Fbg (24 h) was 309.2 mg/dL and the Hb (24 h) was 13.5 g/dL. The Ht (24 h) was 40.7%, the Lym (24 h) was 82.6% and the MCH (24 h) was 21.3 pg. For the same compound, the MCHC (24 h) was 33.3%, the MCV (24 h) was 63.9 fL and the Mono (24 h) was 2.4%. The Neu (24 h) was 13.2%, the PT (24 h) was 16.3 s and the Plat (24 h) was 114.1 x10_4/uL. It also gave an RBC (24 h) of 636.4 x10_4/ul, a Ret (24 h) of 7.1% and a WBC (24 h) of 90.3 x10_2/uL. For the same compound, the KIDNEY_L (24 h) was 1 g, the KIDNEY_R (24 h) was 1 g and the KIDNEY_TOTAL (24 h) was 2 g. The LIVER (24 h) was 10.8 g, the A/G (24 h) was 1.3 and the ALP (24 h) was 1546.4 IU/L. For the same compound, the ALT (24 h) was 47 IU/L, the AST (24 h) was 79 IU/L and the BUN (24 h) was 16.2 mg/dL. The CRE (24 h) was 0.1 mg/dL, the Ca (24 h) was 10.6 mg/dL and the Cl (24 h) was 107.4 meq/L. It also gave a DBIL (24 h) of 0 mg/dL, a GLC (24 h) of 195.4 mg/dL and an IP (24 h) of 6.9 mg/dL. The K (24 h) was 4.4 meq/L, the LDH (24 h) was 207.6 IU/L and the Na (24 h) was 142.8 meq/L. The PL (24 h) was 126.6 mg/dL, the RALB (24 h) was 3.1 g/dL and the TBIL (24 h) was 0.004 mg/dL. The TC (24 h) was 67.6 mg/dL, the TG (24 h) was 123 mg/dL and the TP (24 h) was 5.4 g/dL. For the same compound, the gamma-GTP (24 h) was 1.2 IU/L.
